Starred links: 1 amine or outer side, 2 acyl side, 3 side chain; linkers in the order of their positions; H or OH if unused. Non-standard residues stand in square brackets, D forms with d. Residues, ends and D or L forms follow the SMILES beside them. *: point of attachment. Dolaproine = CO[C@@H]([C@@H]1CCCN1)[C@@H](C)C(=O)O; X1 = O=C([C@@H]1[C@H]2CC[C@H](C2)N1[*:1])[*:2]; Dil = CC[C@H](C)[C@H](NC)[C@@H](CC(=O)O)OC; X2 = CN1[C@@H]2CC[C@@H](C2)[C@H]1C(=O)*; Phe(ol) = N[C@H](CO)Cc1ccccc1
What was measured:
Experiment in all cases: In vitro cell killing assay of payloads (cell proliferation, Cell-Titer-Glo)
Type in all cases: cell-based
JimT1 cells = conditions: Homo sapiens, JIMT-1, 120 h; JimT1 cells; Cell-Titer-Glo after five days; Table 2b; read-out: In vitro cell killing (IC50 (nM)) JimT1
H526 cells = conditions: Homo sapiens, 120 h; NCI-H526 cells; Cell-Titer-Glo after five days; Table 2b; read-out: In vitro cell killing (IC50 (nM)) NCI-H526
A375 cells = conditions: Homo sapiens, A-375, 120 h, Cell-Titer-Glo after five days
Method: (§1) For evaluation of the cell killing potency of the cytotoxic peptides of Formula (I) in vitro, cell proliferation assays were performed in parallel with 8 cell lines: MDA-MB231 clone 16, clone 40, JimT1, HCC1954, H526, KU812, CMK11-5 cells and Jurkat cells. In addition, in vitro, cell proliferation assays were performed using 3 other cell lines: A375, SKBR3 and NCI-N87. All the cell lines are described in more detail in Example 106 and were also used to assess the in vitro potency of immunoconjugates of the invention. The cell proliferation assays were conducted with Cell-Titer-Glo™ (Promega) five days after cells were incubated with various concentrations of ADCs (Riss et al., (2004) Assay Drug Dev Technol. 2:51-62).

NCI-N87 cells = conditions: Homo sapiens, 120 h, Cell-Titer-Glo after five days
Method: as §1

SKBR3 cells = conditions: Homo sapiens, SK-BR-3, 120 h, Cell-Titer-Glo after five days
Method: as §1

HCC1954 cells = conditions: Homo sapiens, 120 h; HCC1954 cells; Cell-Titer-Glo after five days; Table 2b; read-out: In vitro cell killing (IC50 (nM)) HCC1954

| SMILES | IC50 (JimT1 cells) [nM] | IC50 (H526 cells) [nM] | IC50 (A375 cells) [nM] | IC50 (NCI-N87 cells) [nM] | IC50 (SKBR3 cells) [nM] | IC50 (HCC1954 cells) [nM] |
| --- | --- | --- | --- | --- | --- | --- |
| CC[C@H](C)[C@@H]([C@@H](CC(=O)N1CCC[C@H]1[C@H](OC)[C@@H](C)C(=O)N[C@H](CO)Cc1ccccc1)OC)N(C)C(=O)[C@@H](NC(=O)[C@H]1N[C@@H]2CC[C@H]1C2)C(C)C [Compound 50, (1R,3S,4S)-N-((S)-1-(((3R,4S,5S)-1-((S)-2-((1R,2R)-3-(((S)-1-Hydroxy-3-phenylpropan-2-yl)amino)-1-methoxy-2-methyl-3-oxopropyl)pyrrolidin-1-yl)-3-methoxy-5-methyl-1-oxoheptan-4-yl)(methyl)amino)-3-methyl-1-oxobutan-2-yl)-2-azabicyclo[2.2.1]heptane-3-carboxamide] (H-[X1]V[Dil][Dolaproine][Phe(ol)]) | 57.6 | 52.4 | 5.16 | 10.2 | 5.66 |  |
| CC[C@H](C)[C@@H]([C@@H](CC(=O)N1CCC[C@H]1[C@H](OC)[C@@H](C)C(=O)N[C@@H](Cc1ccccc1)C(=O)OC)OC)N(C)C(=O)[C@@H](NC(=O)[C@@H]1[C@H]2CC[C@H](C2)N1C)C(C)C [Compound 53, (S)-Methyl 2-((2R,3R)-3-((S)-1-((3R,4S,5S)-4-((S)-N,3-dimethyl-2-((1R,3S,4S)-2-methyl-2-azabicyclo[2.2.1]heptane-3-carboxamido)butanamido)-3-methoxy-5-methylheptanoyl)pyrrolidin-2-yl)-3-methoxy-2-methylpropanamido)-3-phenylpropanoate] (X2-V[Dil][Dolaproine]F-OMe) | 0.011 | 0.121 | 0.0121 |  | 0.008 | 0.009 |
| CC[C@H](C)[C@@H]([C@@H](CC(=O)N1CCC[C@H]1[C@H](OC)[C@@H](C)C(=O)N[C@@H](Cc1ccccc1)c1nc(-c2ccccc2)c[nH]1)OC)N(C)C(=O)[C@@H](NC(=O)[C@@H]1[C@H]2CC[C@H](C2)N1C)C(C)C [Compound 66, (1R,3S,4S)-N-((S)-1-(((3R,4S,5S)-3-Methoxy-1-((S)-2-((1R,2R)-1-methoxy-2-methyl-3-oxo-3-(((S)-2-phenyl-1-(4-phenyl-1H-imidazol-2-yl)ethyl)amino)propyl)pyrrolidin-1-yl)-5-methyl-1-oxoheptan-4-yl)(methyl)amino)-3-methyl-1-oxobutan-2-yl)-2-methyl-2-azabicyclo[2.2.1]heptane-3-carboxamide] | 0.052 | 0.126 | 0.05 |  | 0.031 | 0.023 |
| CC[C@H](C)[C@@H]([C@@H](CC(=O)N1CCC[C@H]1[C@H](OC)[C@@H](C)C(=O)N[C@H](COC)Cc1cccc(N)c1)OC)N(C)C(=O)[C@@H](NC(=O)[C@@H]1[C@H]2CC[C@H](C2)N1C)C(C)C [Compound 72, (1R,3S,4S)-N-((S)-1-(((3R,4S,5S)-1-((S)-2-((1R,2R)-3-(((S)-1-(3-Aminophenyl)-3-methoxypropan-2-yl)amino)-1-methoxy-2-methyl-3-oxopropyl)pyrrolidin-1-yl)-3-methoxy-5-methyl-1-oxoheptan-4-yl)(methyl)amino)-3-methyl-1-oxobutan-2-yl)-2-methyl-2-azabicyclo[2.2.1]heptane-3-carboxamide] | 0.224 | 0.287 | 0.189 |  | 0.085 | 0.079 |
| CC[C@H](C)[C@@H]([C@@H](CC(=O)N1CCC[C@H]1[C@H](OC)[C@@H](C)C(=O)N[C@H](C)[C@@H](O)c1ccccc1)OC)N(C)C(=O)[C@@H](NC(=O)[C@@H]1[C@H]2CC[C@H](C2)N1C)C(C)C [Compound 74, (1R,3S,4S)-N-((S)-1-(((3R,4S,5S)-1-((S)-2-((1R,2R)-3-(((1S,2R)-1-Hydroxy-1-phenylpropan-2-yl)amino)-1-methoxy-2-methyl-3-oxopropyl)pyrrolidin-1-yl)-3-methoxy-5-methyl-1-oxoheptan-4-yl)(methyl)amino)-3-methyl-1-oxobutan-2-yl)-2-methyl-2-azabicyclo[2.2.1]heptane-3-carboxamide] | 0.587 | 0.962 | 0.571 |  | 0.351 | 0.27 |
